Results taken from paper PMC6920794, “Evaluation of Novel Chalcone-Thiosemicarbazones Derivatives as Potential Anti-Leishmania amazonensis Agents and Its HSA Binding Studies” (Biomolecules, 2019).

How the values were obtained:
[1] = constant of substituent 4-X; cited from earlier work
[2] = system: L. amazonensis axenic amastigotes; assay: Axenic amastigotes assay (resazurin); format: cell-based; conditions: Leishmania amazonensis, 72 h of culture, table title says 48 h
Method: Promastigote forms of L. amazonensis (MHOM/BR/77/LTB0016) were grown to a stationary phase, washed once in phosphate buffer solution (PBS) (pH = 7.4) and adjusted to 5 × 10^6 parasites/mL in Schneider’s medium, supplemented with 20% fetal bovine solution (FBS) pH = 5.5 and maintained at 305K. After 5 days of cultivation, the rounded forms without free flagella were obtained and, after heat shock, were used in the appropriate assays. To evaluate the activity against axenic amastigotes, the parasites were incubated with increasing concentrations of the prototypes (diluted in DMSO) for 72 h at 305K. These assays were performed in triplicate in 96-well flat bottom plates (Falcon Co, Franklin Lakes, USA). The leishmanicidal activity was evaluated by adding 22 μl of resazurin to each well. After 4 h, the cell viability was measured as described above. Calculation of the IC50 values was determined in relation to the control by a sigmoidal model using GraphPad Prism 6.0 software.

[3] = system: murine peritoneal macrophages; assay: Macrophage cytotoxicity (resazurin); format: cell-based
Method: Peritoneal macrophages from albino laboratory-bred strain (BALB/c) mice were obtained in RPMI 1640 medium at pH 7.2 (Gibco, New York, NY, USA) supplemented with 10% (v/v) heat-inactivated fetal bovine serum, 100 U/mL penicillin and 0.1 mg/mL of streptomycin and distributed (1 × 10^6 macrophages/well) in triplicate in 96-well plates (Falcon Co., Franklin Lakes, USA) and incubated for 1 h in a 5% CO2 atmosphere incubator at 310K. The supernatant was removed, and the compounds were added to the plate at concentrations from 10 µM to 50 µM. Next, the cultures were incubated for 48 h in a CO2 incubator at 310K. After incubation, the supernatant was removed and a resazurin solution (50 µM) was added to each well and incubated at 310K for 4 h. Furthermore, the fluorescence was measured using a wavelength of 560 nm for excitation and 590 nm for detection (Molecular Devices, Silicon Valley, USA). Results were expressed as the percentage of viable cells compared to the control cells treated with the highest DMSO dose used to dissolve the drugs. The 50% cytotoxic concentration (CC50) was calculated using GraphPad Prism 6.0 software (GraphPad Company, San Diego, CA, USA).

[4] = system: L. amazonensis promastigotes; assay: Promastigote assay (MTT); format: cell-based, Leishmania amazonensis; conditions: after 48 h of culture (table title); for IC50: Leishmania amazonensis
Method: Leishmania amazonensis (MHOM/BR/77/LTB0016) were regularly isolated from infected mice and maintained in culture as promastigotes through weekly passages in Schneider’s medium (Sigma Aldrich, St. Louis, MO, USA) supplemented with 10% (v/v) heat-inactivated fetal calf serum, penicillin (100 UI/mL), and streptomycin (100 µg/mL) at 299K. Parasites were maintained until the 10th passage. The Animal Ethics Committee of the Oswaldo Cruz Foundation (license number L026/2015) approved this study.
Promastigotes of L. amazonensis (1 × 10^6 promastigotes/mL) in the 4th day on culture in the conditions described above were incubated with the chalcones serially diluted in culture medium (0.032% v/v DMSO at the highest concentration tested) on a 96-well cell culture plate (TPP™ test plate, Switzerland). The assayed concentrations ranged from 50 to 1.56 µM for all chalcone-thiosemicarbazones (5a–g) and for pentamidine (Sigma Aldrich, St. Louis, MO, USA). […] All compounds were analyzed in at least three experiments performed in triplicate. Pentamidine was used as the reference drug and diluted in the same concentrations used for 5a–g. The vehicle (DMSO) had no effect on the parasites.
The antileishmanial activity was evaluated by adding 22 µL of 3-(4,5-dimethylthiazol-2-yl)-2-5diphenyltetrazolium bromide (MTT) at 5 mg/mL (Sigma Aldrich, St. Louis, MO, USA) to each well. After 2 h, 80 µL of DMSO was added and the optical density was determined at a wavelength of 570 nm in a microplate reader (µQuant Bio-Tek Instruments®, Winooski). The assays were carried out in triplicate in 96-well plates (Costar, New York, USA). The inhibition percentage was estimated by the comparison with the non-treated control. The values for the inhibitory concentration for 50% of the promastigotes (IC50) were calculated by a sigmoidal model.

[5] = system: L. amazonensis intracellular amastigotes; assay: Intracellular amastigotes assay in infected macrophages; format: cell-based, Leishmania amazonensis; conditions: for IC50: L. amazonensis-infected murine peritoneal macrophages, 48 h of culture; for Selectivity Index (SI): SI = LD50/IC50 intracellular amastigotes
Method: Peritoneal macrophages were obtained BALB/c mice with cold Roswell Park Memorial Institute (RPMI) 1640 medium (Sigma Aldrich, St. Louis, MO, USA) supplemented as above. The cell suspension was adjusted to 1 × 10^6 macrophage/mL and incubated in a LAB-TEK 8-chamber slide (Nunc, Roskilde, Denmark) at 310K and 5% CO2 for 1 h. Non-adherent cells were removed and stationary-phase L. amazonensis promastigotes were added at a 3:1 parasite/macrophage ratio. The cultures were incubated for a further 4 h, and free parasites were removed. The chambers were washed, and the monolayers were incubated with the compounds for 48 h. Infected macrophages incubated only in the culture medium were used as controls to compare with the infected treated macrophages. […] The cultures were fixed in methanol and stained with the hematological system Instant Prov (Newprov®, Curitiba, Brazil). The slides were examined by light microscopy, and the number of infected macrophages and the mean number of parasites per macrophage were determined in 100 cells counted. The experiments were performed twice in triplicate. The percentage of infected macrophages was calculated by dividing the number of infected macrophages by the total number of macrophages (infected and uninfected) counted on the slides, multiplied by 100. To determine the infection index, the percentage of infected macrophages was multiplied by the mean number of parasites per macrophage. The percentage inhibition of infection was calculated by multiplying the difference between the infection index of the control and the compound by 100 and dividing by the infection index (IF) of the control using the Equation (1):IF = % infected cells × amastigotes number/total number of macrophages(1) The IC50 ± SD (SD: standard deviation) values were obtained by a sigmoidal model using Origin 6.0 with statistical error limits up to 10%. All tests were conducted in duplicate for each concentration, and two independent assays were performed.

[6] = Leishmania amazonensis, Peritoneal macrophage, in Mus musculus, 48 h

| SMILES | IC50 [2] [µM] | IC50 [4] [µM] | IC50 [5, 6] [µM] | melting point [°C] | Promastigotes IC50 [4] | IC50 [5] [µM] | Hammett constant σp [1] | Hansh constant π (lipophilicity) [1] | Taft constant Es [1] | molecular refractivity MR [1] | Macrophages LD50 ([3]; BALB/c, mouse, 48 h, pH 7.2) [µM] | Selectivity Index (SI) [5] | IC50 ([5]; Leishmania amazonensis, Peritoneal macrophage) [µM] | Macrophages LD50 ([3]; murine peritoneal macrophages, 48 h of culture) [µM] |
| --- | --- | --- | --- | --- | --- | --- | --- | --- | --- | --- | --- | --- | --- | --- |
| NC(=S)N/N=C(\C=C\c1ccccc1)c1ccccc1 [Compound 5a, (1E,2E)-3-(phenyl)-1-phenylprop-2-en-1-one thiosemicarbazone] | 6.88 ± 1.09 | 14.7 ± 0.31 |  |  |  |  | 0.00 | 0.00 | 0.00 | 0.00 | 40.98 ± 1.12 |  |  |  |
| Cc1ccc(/C=C/C(=N\NC(N)=S)c2ccccc2)cc1 [Compound 5b, (1E,2E)-3-(4′-methylphenyl)-1-phenylprop-2-en-1-one thiosemicarbazone] | 7.08 ± 1.03 | 14.8 ± 1.92 | 5.95 ± 0.61 |  |  |  | −0.14 | 0.56 | −0.25 | 0.57 | 56.35 ± 0.78 | 9.47 |  |  |
| N#Cc1ccc(/C=C/C(=N\NC(N)=S)c2ccccc2)cc1 [Compound 5c, (1E,2E)-3-(4′-cyanophenyl)-1-phenylprop-2-en-1-one thiosemicarbazone] |  |  |  | 195 to 196 | no significant activity |  | 0.71 | −0.57 | −0.51 | 0.63 |  |  |  |  |
| NC(=S)NN=C(C=Cc1ccc(F)cc1)c1ccccc1 [Compound 5d, (1E,2E)-3-(4′-fluorphenyl)-1-phenylprop-2-en-1-one thiosemicarbazone] | 5.57 ± 1.15 | 13.1 ± 1.85 | 3.4 to 5.95 |  |  | > 3.13 | 0.15 | 0.14 | −0.46 | 0.10 | 35.47 ± 1.38 |  |  |  |
| N=C(N)c1ccc(OCCCCCOc2ccc(C(=N)N)cc2)cc1 [Pentamidine, pentamidine, reference compound] | 12.3 ± 1.17 | 4.9 ± 0.6 |  |  |  |  |  |  |  |  |  | 2.32 | 11.1 ± 1.98 | 25.85 ± 4.06 |

Continued, in another order:

| IC50 [2] [µM] | IC50 [4] [µM] | IC50 [5, 6] [µM] | melting point [°C] | Promastigotes IC50 [4] | IC50 [5] [µM] | SMILES | Hammett constant σp [1] | Hansh constant π (lipophilicity) [1] | Taft constant Es [1] | molecular refractivity MR [1] | Macrophages LD50 ([3]; BALB/c, mouse, 48 h, pH 7.2) [µM] | Selectivity Index (SI) [5] | IC50 ([5]; Leishmania amazonensis, Peritoneal macrophage) [µM] | Macrophages LD50 ([3]; murine peritoneal macrophages, 48 h of culture) [µM] |
| --- | --- | --- | --- | --- | --- | --- | --- | --- | --- | --- | --- | --- | --- | --- |
| 4.24 ± 1.07 | 12.5 ± 0.99 |  |  |  |  | NC(=S)N/N=C(\C=C\c1ccc(Br)cc1)c1ccccc1 [Compound 5f, (1E,2E)-3-(4′-bromophenyl)-1-phenylprop-2-en-1-one thiosemicarbazone] | 0.26 | 0.86 | −1.16 | 0.89 | 44.24 ± 4.21 |  |  |  |
|  |  |  | 188 to 190 | no significant activity |  | NC(=S)N/N=C(\C=C\c1ccc([N+](=O)[O-])cc1)c1ccccc1 [Compound 5g, (1E,2E)-3-(4′-nitrophenyl)-1-phenylprop-2-en-1-one thiosemicarbazone] | 0.81 | −0.28 | −1.01 | 0.74 |  |  |  |  |
